# Reference: US8114895B2, “Use of bipyridine compound ‘Caerulomycin A’ derivatives and analogs thereof as immunosuppressive agents” (Council of Science and Industrial Research, priority 2005, dated 2012)
# Experiments:
# CD4^+ T cells = assay: CD28, CTLA-4 and LFA-1 expression on T cells by flow cytometry; assay type: cell-based
# Procedure: CD28 and CTLA-4 expression was detected on the surface of the resting and ConA activated CD4^+ T cells by flow cytometric analysis. Briefly, the splenocytes (3×10^6 cells/well) were activated with OVA (200 μg/ml) or ConA (1 μg/ml and 2 μg/ml) and were incubated in the presence of different concentrations of Caerulomycin A (0.0125-0.45 μg/ml). The cultures were harvested after 24, 48, 72 and 96 h and cells were stained for the expression of CD4, CD28 and CTLA-4. Further, cultures were also set where Caerulomycin A was added after 24 h and 48 h of the initiation of cultures and the cells were stained after incubating further for 24 h. The cells were harvested and 3-color staining was done using PE (Phycoerythrin) conjugated anti-CD4 Ab, FITC (Fluorescein isothiocyanate) conjugated anti-CTLA-4, and Cy (Cy-chrome) conjugated CD28 Abs. The cells from each suspension were acquired on CELLQUEST software of FACScan (Becton Dickinson, Mountain View, Calif.). […] The analysis for the mean fluorescence intensity (MFI) was done on histograms where abcissa and ordinate denote log fluorescence and relative cell count, respectively.
# Examples establishing the role of Caerulomycin A [isolated from a novel species of Actinoalloteichus] in inducing immunosuppression based on the following: • Splenocytes of BALB/c mice were stimulated with either ConA (1 μg/ml and 2 μg/ml) or LPS (5 μg/ml and 10 μg/ml) and were cultured with different concentrations of Caerulomycin A (0.0003-0.1 μg/ml). […] Radioactivity incorporated was measured by liquid scintillation counting. • Antigen ovalbumin (100 μg/ml) emulsified in Freund's complete adjuvant was injected in a group consisting of 5 BALB/c mice. […] Radioactivity incorporated was measured by liquid scintillation. The culture supernatants were collected after 48 h and cytokines were measured by ELISA. • Immunosuppressive effect of different doses of Caerulomycin A was monitored on naïve CD4^+ T cells, antigen reactive CD4^+ T cells, Th2 clone and Th1 hybridoma. […]
# thymocytes = assay: Expression of CD69 on mouse thymocytes; assay type: cell-based, BALB/c mice; settings: ConA 1 and 5 μg/ml, 24 h
# Procedure: The expression of CD69 was detected on the surface of thymocytes in the presence of Caerulomycin A. Thymocytes were obtained from 3-4 weeks old BALB/c mice. Thymocytes (4×10^6 cells/well) were stimulated with 1 μg/ml and 5 μg/ml of ConA for 24 h in the presence and absence of Caerulomycin A at 37° C. The cells were stained with PE labeled anti-mouse CD69 Ab. The stained cells were acquired on a FACScan as mentioned in the case of CD28/CTLA-4.
# [1] = CD4+ T cells, Caerulomycin A 0.0125-0.45 μg/ml
smiles,measurement,setting,value
"COc1cc(/C=N/O)nc(-c2ccccn2)c1 [Caerulomycin A, (E)-4-methoxy-2,2′-bipyridine-6-carbaldehyde oxime]",expression or percentage of LFA-1 positive cells,CD4^+ T cells,did not exhibit any significant change
same,expression and percentage of CD28,CD4^+ T cells; [1],decreased the expression and percentage
same,expression and percentage of CTLA-4 positive cells,CD4^+ T cells; [1],significantly enhanced the expression but also the percentage
same,expression of CD69,thymocytes,no change in the expression
